Test results published in ChEMBL document CHEMBL5727106, “Imidazol- or 1,2,4-triazol-derivatives and their use” (2019).

How the values were obtained:
[1] = molecular target: T1, G-protein coupled bile acid receptor 1 (Mus musculus, UniProt Q80SS6); test: (§1) TGR5/CRE Luciferase Assay: In the following tables TGR5 activation by compounds and subsequent increase in intracellular cAMP were evaluated using a luciferase reporter gene assay. Human embryonic kidney (HEK) 293 cells were transiently co-transfected with pCMV tag4b-TGR5 h (to follow hTGR5 activation) or pCMV AC6-TGR5m (to follow mTGR5 activation) expression plasmids and the pCRE TA-Luciferase reporter plasmid using the JET PEI reagent (Polyplus transfection). Transfected cells were seeded in 96-well plates and incubated overnight with the test compounds at increasing concentrations tested in duplicate. Lithocolic acid (LCA) at 10 μM was used as a positive reference compound. The cAMP-dependent luciferase expression was followed using the BrightGlo reagent according to the manufacturer (Promega) instructions. Luminescence was read with a Mithras plate reader (Berthold). Data were expressed as percentage of the 10 μM LCA value and EC50 values were calculated using XL fit 5 software or GraphPad Prism 5. Concentration-response curves were fitted by a nonlinear regression analysis to a 4 parameter logistic equation.; format: cell-based
T1 sequence (Q80SS6 whole entry): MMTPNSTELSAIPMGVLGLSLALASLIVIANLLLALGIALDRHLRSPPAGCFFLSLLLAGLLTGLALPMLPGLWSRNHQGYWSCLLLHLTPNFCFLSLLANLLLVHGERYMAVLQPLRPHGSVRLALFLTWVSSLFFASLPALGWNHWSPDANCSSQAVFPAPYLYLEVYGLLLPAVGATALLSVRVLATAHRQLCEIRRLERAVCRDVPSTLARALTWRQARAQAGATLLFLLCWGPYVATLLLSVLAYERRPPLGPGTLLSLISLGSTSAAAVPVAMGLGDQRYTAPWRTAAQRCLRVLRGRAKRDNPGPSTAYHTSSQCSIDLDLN

[2] = molecular target: T2, G-protein coupled bile acid receptor 1 (Homo sapiens, UniProt Q8TDU6); test: as §1, with “Data were expressed as percentage of the 10 μM LCA value and EC50 values were calculated using XL fit 5 software or GraphPad Prism 5.” left out; format: cell-based
T2 sequence (Q8TDU6 whole entry): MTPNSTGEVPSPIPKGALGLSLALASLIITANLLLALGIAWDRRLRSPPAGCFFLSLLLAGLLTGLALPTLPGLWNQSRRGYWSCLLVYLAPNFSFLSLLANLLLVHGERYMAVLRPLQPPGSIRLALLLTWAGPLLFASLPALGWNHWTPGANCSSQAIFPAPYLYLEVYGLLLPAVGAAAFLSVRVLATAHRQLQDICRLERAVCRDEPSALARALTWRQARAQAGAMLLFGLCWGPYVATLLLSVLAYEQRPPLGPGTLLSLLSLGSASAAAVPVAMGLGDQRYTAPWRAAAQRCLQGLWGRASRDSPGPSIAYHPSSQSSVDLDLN

Row | EC50 [1] [nM] | EC50 [2] [nM] | Compound
1 | 18 | 160 | COCCOCCOCCOCCOCCOCCOCCOCCOCCOc1cc(F)c(CSc2ncc(N(C)c3ccc(OC)c(OC)c3)n2-c2ccc(F)cc2)c(F)c1
2 | 29 | 580 | COCCOCCOCCOCCOCCOCCOCCOCCOCCOCCOc1cc(F)c(CSc2ncc(N(C)c3ccc(OC)c(OC)c3)n2-c2ccc(F)cc2)c(F)c1
3 | 68 | 1200 | COCCOCCOCCOCCOCCOCCOCCOCCOCCOCCOCCOCCOCCOCCOCCOCCOCCOCCOCCOCCOCCOCCOCCOCCOCCOCCOCCOCCOCCOCCOCCOCCOCCOCCOCCOCCOCCOc1cc(F)c(CSc2ncc(N(C)c3ccc(OC)c(OC)c3)n2-c2ccc(F)cc2)c(F)c1
4 | 26 | 330 | COCCOCCOCCOCCOCCOCCOCCOCCOCCOCCOCCOCCOCCOCCOCCOCCOc1cc(F)c(CSc2ncc(N(C)c3ccc(OC)c(OC)c3)n2-c2ccc(F)c(OC)c2)c(F)c1
